Measurements taken from US4835189A, “Phenolic thioalkylamides as inhibitors of 5-lipoxygenase” (G. D. Searle & Co., priority 1987, dated 1989).

Molecular target: T1, 5-lipoxygenase (Rattus norvegicus, UniProt P12527)
T1 construct: The 100,000 x g supernatant fraction of Rat Basophilic Leukemia Cell Homogenate (RBL-1) serves as a 5-lipoxygenase enzyme source; endogenous in cells; host or cells: RBL-1 (rat basophilic leukemia) cells, 100,000 x g supernatant of homogenate
T1 sequence (P12527 1-673): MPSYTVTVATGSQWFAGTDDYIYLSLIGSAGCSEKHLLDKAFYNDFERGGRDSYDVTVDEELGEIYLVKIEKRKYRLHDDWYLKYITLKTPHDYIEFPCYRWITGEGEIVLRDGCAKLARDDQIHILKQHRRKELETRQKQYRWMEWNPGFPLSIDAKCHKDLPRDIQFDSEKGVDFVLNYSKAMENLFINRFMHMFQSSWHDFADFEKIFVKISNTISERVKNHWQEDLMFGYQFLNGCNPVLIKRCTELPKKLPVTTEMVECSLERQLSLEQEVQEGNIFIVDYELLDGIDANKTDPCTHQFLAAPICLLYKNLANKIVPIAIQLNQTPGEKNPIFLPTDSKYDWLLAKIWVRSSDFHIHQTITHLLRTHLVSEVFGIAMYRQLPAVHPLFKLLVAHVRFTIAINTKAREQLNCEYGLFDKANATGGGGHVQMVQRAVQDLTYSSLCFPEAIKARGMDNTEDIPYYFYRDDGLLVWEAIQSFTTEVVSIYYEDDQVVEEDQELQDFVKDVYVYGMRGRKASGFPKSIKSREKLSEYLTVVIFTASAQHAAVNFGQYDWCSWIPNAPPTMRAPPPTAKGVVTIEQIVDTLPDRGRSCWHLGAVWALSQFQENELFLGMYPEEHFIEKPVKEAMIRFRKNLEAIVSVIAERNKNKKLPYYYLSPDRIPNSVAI
Assay: Inhibition of 5-lipoxygenase, in vitro (5-HETE synthesis, RBL-1 homogenate 100,000 x g supernatant)
Type: biochemical
Conditions: RBL-1 100,000 x g supernatant, [1-14C]-arachidonic acid and Ca++
Description: The compounds of the invention are evaluated with respect to 5-lipoxygenaseinhibition according to the following assay procedure.
Inhibition of 5-lipoxygenase, in vitro: anti-inflammatory, anti-allergy activities.
The 100,000 x g supernatant fraction of Rat Basophilic Leukemia Cell Homogenate (RBL-1) serves as a 5-lipoxygenase enzyme source. The enzyme is incubated with [1-^14 C)-arachidonic acid and Ca++ in the presence and absence of test compound. The product of 5-lipoxygenase, 5-hydroxyeicosatetraenoic acid (5-HETE), is separated by thin-layer chromatography and measured by radioactivity. A compound inhibiting 5-HETE synthesis by 30% or more is considered active at that concentration.

| Structure (SMILES) | IC50 |
| --- | --- |
| CC(C)N(Cc1ccccc1)C(=O)CCSc1cc(C(C)(C)C)c(O)c(C(C)(C)C)c1 [Example 4, 3-[[3,5-bis(1,1-dimethylethyl)-4-hydroxylphenyl]thio]-N-(1-methylethyl)-N-(phenylmethyl)propanamide] | 560 nM |
| CC(C)N(C(=O)CCSc1cc(C(C)(C)C)c(O)c(C(C)(C)C)c1)C(C)C [Example 5, 3-[[3,5-bis(1,1-dimethylethyl)-4-hydroxyphenyl]thio]-N,N-bis(1-methylethyl)propanamide] | 1400 nM |
